Data reported in ChEMBL document CHEMBL3430320, “Prediction of Thorough QT study results using action potential simulations based on ion channel screens” (J Pharmacol Toxicol Methods, 2014).

Key:
[1] = target: T1, A-type voltage-gated potassium channel KCND3 (Homo sapiens, UniProt Q9UK17); assay: Inhibition of transient outward potassium current (Ito) current in Chinese Hamster Ovary (CHO) K1 cells expressing human Kv4.3 measured using IonWorks Quattro automated patch clamp platform; format: functional, cell-based, Cricetulus griseus
T1 sequence (Q9UK17 whole entry): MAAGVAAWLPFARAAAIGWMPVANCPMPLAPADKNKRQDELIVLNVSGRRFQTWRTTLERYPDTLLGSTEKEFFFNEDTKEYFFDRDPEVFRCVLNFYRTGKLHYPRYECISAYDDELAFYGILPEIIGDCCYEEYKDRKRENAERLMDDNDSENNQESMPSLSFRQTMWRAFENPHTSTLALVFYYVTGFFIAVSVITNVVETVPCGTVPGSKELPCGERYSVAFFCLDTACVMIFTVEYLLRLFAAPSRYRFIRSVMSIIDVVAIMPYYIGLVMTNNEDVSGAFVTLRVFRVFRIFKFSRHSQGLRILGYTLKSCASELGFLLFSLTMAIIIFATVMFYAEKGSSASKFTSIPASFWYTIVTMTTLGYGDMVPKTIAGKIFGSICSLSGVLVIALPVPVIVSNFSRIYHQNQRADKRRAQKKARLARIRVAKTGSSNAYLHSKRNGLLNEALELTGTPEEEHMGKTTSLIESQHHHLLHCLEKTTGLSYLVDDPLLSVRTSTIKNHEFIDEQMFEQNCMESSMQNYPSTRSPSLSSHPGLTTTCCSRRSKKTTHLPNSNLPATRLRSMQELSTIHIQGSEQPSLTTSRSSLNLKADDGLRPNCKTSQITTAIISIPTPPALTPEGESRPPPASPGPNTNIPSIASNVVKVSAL

[2] = target: T2, Voltage-gated inwardly rectifying potassium channel KCNH2 (Homo sapiens, UniProt Q12809); assay: Inhibition of rapid delayed inward rectifying potassium current (IKr) measured using manual patch clamp assay; format: functional
T2 sequence (Q12809 whole entry): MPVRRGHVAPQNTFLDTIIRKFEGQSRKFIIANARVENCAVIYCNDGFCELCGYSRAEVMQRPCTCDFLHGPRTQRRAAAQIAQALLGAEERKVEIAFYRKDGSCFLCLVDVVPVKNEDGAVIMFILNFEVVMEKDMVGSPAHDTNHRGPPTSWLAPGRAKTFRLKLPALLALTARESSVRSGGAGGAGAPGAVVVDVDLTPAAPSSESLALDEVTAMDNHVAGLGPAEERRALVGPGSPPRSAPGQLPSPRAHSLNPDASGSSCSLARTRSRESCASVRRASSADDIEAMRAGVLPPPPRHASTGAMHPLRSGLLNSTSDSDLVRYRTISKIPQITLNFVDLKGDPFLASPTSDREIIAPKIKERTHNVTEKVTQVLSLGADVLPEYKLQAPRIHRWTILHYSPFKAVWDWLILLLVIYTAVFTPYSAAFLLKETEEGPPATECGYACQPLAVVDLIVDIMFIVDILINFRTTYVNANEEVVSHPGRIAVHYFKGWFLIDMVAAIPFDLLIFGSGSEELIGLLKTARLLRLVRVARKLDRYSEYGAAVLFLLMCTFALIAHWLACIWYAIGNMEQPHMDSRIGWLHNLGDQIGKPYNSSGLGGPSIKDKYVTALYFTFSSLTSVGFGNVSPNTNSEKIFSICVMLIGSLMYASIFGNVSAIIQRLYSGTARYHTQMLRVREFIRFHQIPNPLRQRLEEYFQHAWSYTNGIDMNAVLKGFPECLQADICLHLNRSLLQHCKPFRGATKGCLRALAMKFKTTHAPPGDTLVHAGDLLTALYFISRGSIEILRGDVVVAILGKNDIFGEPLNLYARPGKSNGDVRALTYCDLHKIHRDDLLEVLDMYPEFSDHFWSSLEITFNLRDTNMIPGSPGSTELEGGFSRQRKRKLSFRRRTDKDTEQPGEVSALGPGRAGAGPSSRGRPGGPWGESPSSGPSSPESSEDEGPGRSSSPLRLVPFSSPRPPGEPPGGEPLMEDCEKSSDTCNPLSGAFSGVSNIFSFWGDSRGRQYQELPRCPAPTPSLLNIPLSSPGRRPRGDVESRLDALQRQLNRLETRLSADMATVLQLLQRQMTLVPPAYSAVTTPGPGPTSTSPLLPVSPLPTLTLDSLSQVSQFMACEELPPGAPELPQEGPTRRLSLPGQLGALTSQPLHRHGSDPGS

[3] = target: T3, Voltage-dependent L-type calcium channel subunit alpha-1C (Homo sapiens, UniProt Q13936); assay: Inhibition of long-lasting type calcium current (ICaL) in HEK293 cells (alpha1C/beta2a/alpha2delta1) cells measured using IonWorks Barracuda automated patch clamp platform; format: functional, cell-based
T3 sequence (Q13936 whole entry): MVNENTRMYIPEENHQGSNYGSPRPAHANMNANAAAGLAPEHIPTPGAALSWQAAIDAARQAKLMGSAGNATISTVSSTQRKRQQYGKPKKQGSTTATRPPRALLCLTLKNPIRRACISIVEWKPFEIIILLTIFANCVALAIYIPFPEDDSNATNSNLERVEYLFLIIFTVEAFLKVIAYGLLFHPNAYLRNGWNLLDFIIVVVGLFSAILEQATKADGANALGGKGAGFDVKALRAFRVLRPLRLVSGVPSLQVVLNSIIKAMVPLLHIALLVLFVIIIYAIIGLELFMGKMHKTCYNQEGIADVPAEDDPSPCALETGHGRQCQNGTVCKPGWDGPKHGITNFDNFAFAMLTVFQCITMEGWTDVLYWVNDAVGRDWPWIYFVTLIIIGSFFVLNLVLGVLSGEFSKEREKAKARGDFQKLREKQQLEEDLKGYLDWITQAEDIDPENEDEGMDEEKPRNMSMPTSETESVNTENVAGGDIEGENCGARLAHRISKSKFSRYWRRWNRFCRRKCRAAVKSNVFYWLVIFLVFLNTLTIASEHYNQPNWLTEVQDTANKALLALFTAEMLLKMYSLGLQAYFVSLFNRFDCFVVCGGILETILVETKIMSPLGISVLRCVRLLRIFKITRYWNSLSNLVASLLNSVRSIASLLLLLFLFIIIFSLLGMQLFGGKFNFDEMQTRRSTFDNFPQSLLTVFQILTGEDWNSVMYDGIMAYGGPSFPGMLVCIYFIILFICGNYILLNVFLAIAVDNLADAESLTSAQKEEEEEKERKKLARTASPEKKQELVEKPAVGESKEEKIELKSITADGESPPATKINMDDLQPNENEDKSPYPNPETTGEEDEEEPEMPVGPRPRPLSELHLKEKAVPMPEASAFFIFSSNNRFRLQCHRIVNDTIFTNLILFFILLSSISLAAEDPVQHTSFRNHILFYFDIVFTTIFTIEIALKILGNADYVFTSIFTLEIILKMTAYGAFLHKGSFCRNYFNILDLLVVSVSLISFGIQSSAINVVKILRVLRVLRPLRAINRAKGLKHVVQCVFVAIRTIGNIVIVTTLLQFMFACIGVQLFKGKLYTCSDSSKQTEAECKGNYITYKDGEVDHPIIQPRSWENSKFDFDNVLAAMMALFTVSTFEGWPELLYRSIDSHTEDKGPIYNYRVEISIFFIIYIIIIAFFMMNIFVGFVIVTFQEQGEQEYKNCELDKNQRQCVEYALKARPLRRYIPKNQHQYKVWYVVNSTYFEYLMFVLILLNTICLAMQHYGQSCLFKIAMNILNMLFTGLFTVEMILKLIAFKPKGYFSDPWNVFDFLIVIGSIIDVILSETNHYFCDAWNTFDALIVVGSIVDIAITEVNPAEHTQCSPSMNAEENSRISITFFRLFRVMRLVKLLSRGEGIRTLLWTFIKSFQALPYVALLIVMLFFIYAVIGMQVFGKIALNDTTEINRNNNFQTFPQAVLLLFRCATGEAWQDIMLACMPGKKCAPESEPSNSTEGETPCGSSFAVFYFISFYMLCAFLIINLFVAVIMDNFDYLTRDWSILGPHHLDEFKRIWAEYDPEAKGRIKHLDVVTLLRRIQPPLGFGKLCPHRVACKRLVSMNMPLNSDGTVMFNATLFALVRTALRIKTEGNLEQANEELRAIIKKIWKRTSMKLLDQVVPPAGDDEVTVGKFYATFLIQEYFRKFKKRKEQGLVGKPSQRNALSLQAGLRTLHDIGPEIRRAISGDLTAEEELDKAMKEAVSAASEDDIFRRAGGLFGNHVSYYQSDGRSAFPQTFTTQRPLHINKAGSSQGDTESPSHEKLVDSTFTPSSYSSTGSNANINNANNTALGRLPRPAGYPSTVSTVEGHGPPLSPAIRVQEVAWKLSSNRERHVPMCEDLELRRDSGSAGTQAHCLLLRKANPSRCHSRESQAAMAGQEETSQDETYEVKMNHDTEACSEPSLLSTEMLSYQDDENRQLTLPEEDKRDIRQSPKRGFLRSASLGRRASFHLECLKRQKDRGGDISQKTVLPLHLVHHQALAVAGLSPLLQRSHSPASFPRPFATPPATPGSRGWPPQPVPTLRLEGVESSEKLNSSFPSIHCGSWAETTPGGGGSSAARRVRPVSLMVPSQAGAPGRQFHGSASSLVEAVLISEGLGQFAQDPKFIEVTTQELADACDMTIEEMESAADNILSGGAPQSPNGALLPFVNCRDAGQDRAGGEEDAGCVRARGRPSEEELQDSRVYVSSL

[4] = target: T2, Voltage-gated inwardly rectifying potassium channel KCNH2; assay: Inhibition of rapid delayed inward rectifying potassium current (IKr) in Chinese hamster ovary (CHO) K1 cells stably expressing hERG measured using IonWorks Quattro automated patch clamp platform; format: functional, cell-based, Cricetulus griseus
[5] = target: T2, Voltage-gated inwardly rectifying potassium channel KCNH2; assay: Inhibition of rapid delayed inward rectifying potassium current (IKr) in Chinese hamster ovary (CHO) cells stable expressing hERG measured using IonWorks Barracuda automated patch clamp platform; format: functional, cell-based, Cricetulus griseus
[6] = target: T4, Voltage-gated potassium channel, IKs; KCNQ1(Kv7.1)/KCNE1(MinK) (Homo sapiens, UniProt P51787+P15382); assay: Inhibition of slow delayed inward rectifying potassium current (Iks) in Chinese Hamster Ovary (CHO) cells transfected with KCNQ1 / […] / KvLQT1 and KCNE1/minK measured using IonWorks automated patch clamp platform; format: functional, cell-based, Cricetulus griseus
T4 sequence (P51787 whole entry): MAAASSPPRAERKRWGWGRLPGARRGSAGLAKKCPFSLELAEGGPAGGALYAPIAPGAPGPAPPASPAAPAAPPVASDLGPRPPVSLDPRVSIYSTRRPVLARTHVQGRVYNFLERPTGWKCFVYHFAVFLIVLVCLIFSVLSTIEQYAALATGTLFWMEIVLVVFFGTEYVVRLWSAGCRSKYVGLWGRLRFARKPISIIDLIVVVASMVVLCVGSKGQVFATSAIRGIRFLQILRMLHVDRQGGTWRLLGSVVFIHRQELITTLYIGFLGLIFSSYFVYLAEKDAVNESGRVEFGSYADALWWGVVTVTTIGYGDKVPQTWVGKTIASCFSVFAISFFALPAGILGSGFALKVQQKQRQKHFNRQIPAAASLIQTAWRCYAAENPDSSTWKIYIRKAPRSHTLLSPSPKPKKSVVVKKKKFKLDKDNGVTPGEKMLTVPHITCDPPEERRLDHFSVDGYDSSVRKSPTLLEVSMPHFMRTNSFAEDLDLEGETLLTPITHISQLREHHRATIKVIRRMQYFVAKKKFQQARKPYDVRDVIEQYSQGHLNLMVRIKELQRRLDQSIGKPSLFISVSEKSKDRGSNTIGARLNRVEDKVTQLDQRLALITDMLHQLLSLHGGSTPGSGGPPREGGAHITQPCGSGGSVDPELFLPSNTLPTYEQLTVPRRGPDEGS

[7] = target: T4, Voltage-gated potassium channel, IKs; KCNQ1(Kv7.1)/KCNE1(MinK); assay: (§1) Inhibition of slow delayed inward rectifying potassium current (Iks) in Chinese Hamster Ovary (CHO) cells expressing hKvLQT1/hminK measured using IonWorks Quattro automated patch clamp platform; format: functional, cell-based, Cricetulus griseus
[8] = target: T3, Voltage-dependent L-type calcium channel subunit alpha-1C; assay: Inhibition of long-lasting type calcium current (hICa) in Chinese Hamster Ovary (CHO) cells expressing hCav1.2 measured using IonWorks Quattro automated patch clamp platform; format: functional, cell-based, Cricetulus griseus
[9] = target: Sodium channel protein type 5 subunit alpha (Homo sapiens, UniProt Q14524); assay: Inhibition of fast sodium current (INa) in HEK293 cells transfected with human Nav1.5 measured using IonWorks Quattro automated patch clamp platform; format: functional, cell-based
[10] = target: Voltage-gated potassium channel, IKs; KCNQ1(Kv7.1)/KCNE1(MinK) (Homo sapiens, UniProt P15382+P51787); assay: as §1; format: functional, cell-based, Cricetulus griseus
Voltage-gated potassium channel, IKs; KCNQ1(Kv7.1)/KCNE1(MinK) (Homo sapiens, UniProt P15382+P51787), sequence (P51787 whole entry): as the sequence (P51787 whole entry) above

[11] = target: T2, Voltage-gated inwardly rectifying potassium channel KCNH2

SMILES	pIC50 [3]	pIC50 [6]	pIC50 [8]	other results
O=C1c2cccc3c2[C@H](CCC3)CN1[C@@H]1CN2CCC1CC2 [PALONOSETRON]				pIC50 [1]: Inactive; IC50 [2]: 2 µM
O=C(O)c1ccc(-n2nc(-c3ccccc3O)nc2-c2ccccc2O)cc1 [DEFERASIROX]	Inactive	Inactive		pIC50 [4]: Inactive; pIC50 [5]: Inactive; pIC50 [7]: Inactive
Nc1nnc(-c2cccc(Cl)c2Cl)c(N)n1 [LAMOTRIGINE]		Inactive		pIC50 [1]: Inactive
N[C@@H](CC(=O)N1CCn2c(nnc2C(F)(F)F)C1)Cc1cc(F)c(F)cc1F [SITAGLIPTIN]	Inactive	Inactive		
CO[C@H]1C[C@@H]2CC[C@@H](C)[C@@](O)(O2)C(=O)C(=O)N2CCCC[C@H]2C(=O)O[C@H]([C@H](C)C[C@@H]2CC[C@@H](OCCO)[C@H](OC)C2)CC(=O)[C@H](C)/C=C(\C)[C@@H](O)[C@@H](OC)C(=O)[C@H](C)C[C@H](C)/C=C/C=C/C=C/1C [EVEROLIMUS]	Inactive	Inactive	Inactive	
COc1cc2nc(N(C)CCCNC(=O)C3CCCO3)nc(N)c2cc1OC (stereo unspecified) [ALFUZOSIN]	Inactive	Inactive		
C[C@H]1CN(C[C@H](Cc2ccccc2)C(=O)NCC(=O)O)CC[C@@]1(C)c1cccc(O)c1 [ALVIMOPAN]				pIC50 [1]: Inactive
Cc1c(O)cccc1C(=O)N[C@@H](CSc1ccccc1)[C@H](O)CN1C[C@H]2CCCC[C@H]2C[C@H]1C(=O)NC(C)(C)C	Inactive	Inactive	Inactive	
Cc1ccc(O)c([C@H](CCN(C(C)C)C(C)C)c2ccccc2)c1 [TOLTERODINE]				IC50 [10]: 79.4 µM
COC(c1ccccc1)(c1ccccc1)[C@H](Oc1nc(C)cc(C)n1)C(=O)O [AMBRISENTAN]	Inactive			pIC50 [4]: 2.1; pIC50 [5]: Inactive
Cc1cn([C@@H]2C[C@@H](O)[C@H](CO)O2)c(=O)[nH]c1=O [TELBIVUDINE]			Inactive	pIC50 [1]: Inactive; pIC50 [4]: 2.3
CN(C)CC(c1ccc(O)cc1)C1(O)CCCCC1 (stereo unspecified) [DESVENLAFAXINE]	Inactive	Inactive	Inactive	pIC50 [4]: 1.7; pIC50 [5]: Inactive; pIC50 [7]: Inactive
C[C@@H](O)[C@H]1C(=O)N2C(C(=O)O)=C(S[C@@H]3CN[C@H](CNS(N)(=O)=O)C3)[C@H](C)[C@H]12 [DORIPENEM]				pIC50 [1]: Inactive
C[C@H](Cc1cc2c(c(C(N)=O)c1)N(CCCO)CC2)NCCOc1ccccc1OCC(F)(F)F [SILODOSIN]				IC50 [11]: 7.94 µM
OC(CNCC(O)C1CCc2cc(F)ccc2O1)C1CCc2cc(F)ccc2O1 (stereo unspecified) [NEBIVOLOL]			Inactive	IC50 [2]: 0.316 µM

Now from value to molecule, other results behind:

pIC50 [3]	pIC50 [6]	SMILES	pIC50 [8]	other results
	Inactive	CCCc1nc(C)c2c(=O)[nH]c(-c3cc(S(=O)(=O)N4CCN(CC)CC4)ccc3OCC)nn12		
Inactive	Inactive	CC1=NN(c2ccc(C)c(C)c2)C(=O)/C1=N\Nc1cccc(-c2cccc(C(=O)O)c2)c1O [ELTROMBOPAG]	Inactive	pIC50 [4]: Inactive; pIC50 [7]: Inactive
	Inactive	CS(=O)(=O)CCNCc1ccc(-c2ccc3ncnc(Nc4ccc(OCc5cccc(F)c5)c(Cl)c4)c3c2)o1 [LAPATINIB]		pIC50 [9]: Inactive; pIC50 [1]: Inactive
Inactive	Inactive	Cc1cc(C#N)cc(C)c1Oc1nc(Nc2ccc(C#N)cc2)nc(N)c1Br [ETRAVIRINE]	Inactive	
	Inactive	Cc1cn(-c2cc(NC(=O)c3ccc(C)c(Nc4nccc(-c5cccnc5)n4)c3)cc(C(F)(F)F)c2)cn1 [NILOTINIB]		
	Inactive	Cc1nc(Nc2ncc(C(=O)Nc3c(C)cccc3Cl)s2)cc(N2CCN(CCO)CC2)n1.O [DASATINIB]		
